Laboratory results from PubChem BioAssay AID1963825 (Molecular Pharmacology Branch, DTP, NCI, 2024).

Assay: Anticancer human tumor 997537-175-T-J1-PDC patient-derived colon adenocarcinoma cell line growth inhibition [POLQ]
Conditions: 997537-175-T-J1-PDC complex spheroid viability, combination with POLQ inhibitors; second compound 10 µM; first compound 0.0316 µM; active compounds read low
How it was run: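 PDC + HUVEC + MSC complex spheroids; POLQ inhibitors ± partner drugs; top conc. at/near clinical Cmax, else 10 microM (SN-38 1 microM), half-log dilutions; 37 degrees C, 5% CO2.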
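Note: luminescence signal used as a surrogate for viable cells; spheroids exposed to drugs for seven days before readout.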

SMILES	viability, T/C [%]
CC1COCCN1c1cc(C2(O)CC3CCC(C2)O3)c2cnn(-c3ccn[nH]3)c2n1 (configuration not stated) + Cc1cccc(N(C)C(=O)C2C(O)CCN2c2nc(C)cc(C(F)(F)F)c2C#N)c1	92.3
CC1COCCN1c1cc(C2(O)CC3CCC(C2)O3)c2cnn(-c3ccn[nH]3)c2n1 (configuration not stated) + COC1C(OC(N)=O)C(O)C(Oc2ccc3c(O)c(NC(=O)c4ccc(O)c(CC=C(C)C)c4)c(=O)oc3c2C)OC1(C)C	71.3

Same assay, conditions: 997537-175-T-J1-PDC complex spheroid viability, combination with POLQ inhibitors; second compound 10 µM; first compound 0.1 µM; active compounds read low

SMILES	viability, T/C [%]
COc1cc2cc(C(=O)CCC(=O)O)sc2cc1OC + COC1C(OC(N)=O)C(O)C(Oc2ccc3c(O)c(NC(=O)c4ccc(O)c(CC=C(C)C)c4)c(=O)oc3c2C)OC1(C)C	89.6
O=C(Nc1ccc(O)c(NS(=O)(=O)c2ccc(F)cc2)c1)c1ccc(-c2ccccc2)cc1 + Nc1ccc(C#CCN(C(=O)Cc2ncc(C(F)(F)F)cc2C(F)(F)F)c2ccc(F)cc2)nn1	101
CC1COCCN1c1cc(-c2ccnn2C)c2ccnc(-c3ccn[nH]3)c2n1 (configuration not stated) + Nc1ccc(C#CCN(C(=O)Cc2ncc(C(F)(F)F)cc2C(F)(F)F)c2ccc(F)cc2)nn1	75.3
CC1COCCN1c1cc(C2(O)CC3CCC(C2)O3)c2cnn(-c3ccn[nH]3)c2n1 (configuration not stated) + Cc1cccc(N(C)C(=O)C2C(O)CCN2c2nc(C)cc(C(F)(F)F)c2C#N)c1	69
CC1COCCN1c1cc(C2(O)CC3CCC(C2)O3)c2cnn(-c3ccn[nH]3)c2n1 (configuration not stated) + COC1C(OC(N)=O)C(O)C(Oc2ccc3c(O)c(NC(=O)c4ccc(O)c(CC=C(C)C)c4)c(=O)oc3c2C)OC1(C)C	60.5

Same assay, conditions: 997537-175-T-J1-PDC complex spheroid viability, combination with POLQ inhibitors; second compound 10 µM; first compound 0.316 µM; active compounds read low

SMILES	viability, T/C [%]
COc1cc2cc(C(=O)CCC(=O)O)sc2cc1OC + COC1C(OC(N)=O)C(O)C(Oc2ccc3c(O)c(NC(=O)c4ccc(O)c(CC=C(C)C)c4)c(=O)oc3c2C)OC1(C)C	95.5
O=C(Nc1ccc(O)c(NS(=O)(=O)c2ccc(F)cc2)c1)c1ccc(-c2ccccc2)cc1 + Nc1ccc(C#CCN(C(=O)Cc2ncc(C(F)(F)F)cc2C(F)(F)F)c2ccc(F)cc2)nn1	113
CC1COCCN1c1cc(-c2ccnn2C)c2ccnc(-c3ccn[nH]3)c2n1 (configuration not stated) + Nc1ccc(C#CCN(C(=O)Cc2ncc(C(F)(F)F)cc2C(F)(F)F)c2ccc(F)cc2)nn1	39.2
CC1COCCN1c1cc(C2(O)CC3CCC(C2)O3)c2cnn(-c3ccn[nH]3)c2n1 (configuration not stated) + Cc1cccc(N(C)C(=O)C2C(O)CCN2c2nc(C)cc(C(F)(F)F)c2C#N)c1	61.4
CC1COCCN1c1cc(C2(O)CC3CCC(C2)O3)c2cnn(-c3ccn[nH]3)c2n1 (configuration not stated) + COC1C(OC(N)=O)C(O)C(Oc2ccc3c(O)c(NC(=O)c4ccc(O)c(CC=C(C)C)c4)c(=O)oc3c2C)OC1(C)C	41.1

Same assay, conditions: 997537-175-T-J1-PDC complex spheroid viability, combination with POLQ inhibitors; second compound 10 µM; first compound 1 µM; active compounds read low

SMILES	viability, T/C [%]
COc1cc2cc(C(=O)CCC(=O)O)sc2cc1OC + COC1C(OC(N)=O)C(O)C(Oc2ccc3c(O)c(NC(=O)c4ccc(O)c(CC=C(C)C)c4)c(=O)oc3c2C)OC1(C)C	104
O=C(Nc1ccc(O)c(NS(=O)(=O)c2ccc(F)cc2)c1)c1ccc(-c2ccccc2)cc1 + Nc1ccc(C#CCN(C(=O)Cc2ncc(C(F)(F)F)cc2C(F)(F)F)c2ccc(F)cc2)nn1	103
CC1COCCN1c1cc(-c2ccnn2C)c2ccnc(-c3ccn[nH]3)c2n1 (configuration not stated) + Nc1ccc(C#CCN(C(=O)Cc2ncc(C(F)(F)F)cc2C(F)(F)F)c2ccc(F)cc2)nn1	32.5
CC1COCCN1c1cc(C2(O)CC3CCC(C2)O3)c2cnn(-c3ccn[nH]3)c2n1 (configuration not stated) + Cc1cccc(N(C)C(=O)C2C(O)CCN2c2nc(C)cc(C(F)(F)F)c2C#N)c1	47.4
CC1COCCN1c1cc(C2(O)CC3CCC(C2)O3)c2cnn(-c3ccn[nH]3)c2n1 (configuration not stated) + COC1C(OC(N)=O)C(O)C(Oc2ccc3c(O)c(NC(=O)c4ccc(O)c(CC=C(C)C)c4)c(=O)oc3c2C)OC1(C)C	58.3

Same assay, conditions: 997537-175-T-J1-PDC complex spheroid viability, combination with POLQ inhibitors; second compound 10 µM; first compound 3.16 µM; active compounds read low

SMILES	viability, T/C [%]
COc1cc2cc(C(=O)CCC(=O)O)sc2cc1OC + COC1C(OC(N)=O)C(O)C(Oc2ccc3c(O)c(NC(=O)c4ccc(O)c(CC=C(C)C)c4)c(=O)oc3c2C)OC1(C)C	94.8
O=C(Nc1ccc(O)c(NS(=O)(=O)c2ccc(F)cc2)c1)c1ccc(-c2ccccc2)cc1 + Nc1ccc(C#CCN(C(=O)Cc2ncc(C(F)(F)F)cc2C(F)(F)F)c2ccc(F)cc2)nn1	97.4
CC1COCCN1c1cc(-c2ccnn2C)c2ccnc(-c3ccn[nH]3)c2n1 (configuration not stated) + Nc1ccc(C#CCN(C(=O)Cc2ncc(C(F)(F)F)cc2C(F)(F)F)c2ccc(F)cc2)nn1	57.5
CC1COCCN1c1cc(C2(O)CC3CCC(C2)O3)c2cnn(-c3ccn[nH]3)c2n1 (configuration not stated) + Cc1cccc(N(C)C(=O)C2C(O)CCN2c2nc(C)cc(C(F)(F)F)c2C#N)c1	58.1
CC1COCCN1c1cc(C2(O)CC3CCC(C2)O3)c2cnn(-c3ccn[nH]3)c2n1 (configuration not stated) + COC1C(OC(N)=O)C(O)C(Oc2ccc3c(O)c(NC(=O)c4ccc(O)c(CC=C(C)C)c4)c(=O)oc3c2C)OC1(C)C	61.7

Same assay, conditions: 997537-175-T-J1-PDC complex spheroid viability, combination with POLQ inhibitors; second compound 10 µM; first compound 10 µM; active compounds read low

SMILES	viability, T/C [%]
COc1cc2cc(C(=O)CCC(=O)O)sc2cc1OC + COC1C(OC(N)=O)C(O)C(Oc2ccc3c(O)c(NC(=O)c4ccc(O)c(CC=C(C)C)c4)c(=O)oc3c2C)OC1(C)C	84.1
O=C(Nc1ccc(O)c(NS(=O)(=O)c2ccc(F)cc2)c1)c1ccc(-c2ccccc2)cc1 + Nc1ccc(C#CCN(C(=O)Cc2ncc(C(F)(F)F)cc2C(F)(F)F)c2ccc(F)cc2)nn1	81
CC1COCCN1c1cc(-c2ccnn2C)c2ccnc(-c3ccn[nH]3)c2n1 (configuration not stated) + Nc1ccc(C#CCN(C(=O)Cc2ncc(C(F)(F)F)cc2C(F)(F)F)c2ccc(F)cc2)nn1	67.5
CC1COCCN1c1cc(C2(O)CC3CCC(C2)O3)c2cnn(-c3ccn[nH]3)c2n1 (configuration not stated) + Cc1cccc(N(C)C(=O)C2C(O)CCN2c2nc(C)cc(C(F)(F)F)c2C#N)c1	44.8
CC1COCCN1c1cc(C2(O)CC3CCC(C2)O3)c2cnn(-c3ccn[nH]3)c2n1 (configuration not stated) + COC1C(OC(N)=O)C(O)C(Oc2ccc3c(O)c(NC(=O)c4ccc(O)c(CC=C(C)C)c4)c(=O)oc3c2C)OC1(C)C	63.6
